For 35 compounds, IC50 results are on record in US7507727B2, “Substituted quinobenzoxazine analogs and methods of using thereof” (Cylene Pharmaceuticals, Inc., priority 2003, dated 2009).

In assay [1] the test system is HeLa cells. Description: MTS cell proliferation and/or cytotoxicity assay. Type of assay: cell-based, Human. Summed up:
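HeLa cells seeded at 4,500 cells/well, exposed to compounds from day 1 for 3 days at 37 °C, 5% CO2. Viability by MTS/PMS (20:1) with 4 h incubation, absorbance at 490 nm. Values are concentrations giving 50% antiproliferative response.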

The target in assay [2] is c-Myc template DNA (c-myc quadruplex). Nature of the assay: Quadruplex binding / stop assay (Taq polymerase arrest, capillary electrophoresis).
From the text: A high throughput polymerase arrest assay has been developed. The assay comprises contacting a template nucleic acid, often DNA, with a primer, which also is often DNA; contacting the primer/template complex with a compound described herein (also referred to as a “test compound”); contacting the primer/template complex with a polymerase; and separating reaction products. The assay often includes the step of denaturing the primer/template complex mixture and then renaturing the complex, which often is carried out before a test molecule is added to the system. Multiple assays often are carried out using varying concentrations of a test compound, such that an IC50 value can be obtained, for example. The reaction products often include extended primers of different lengths.
Thus, the reaction mixture often includes at least two reaction products when a test compound interacts with a quadruplex structure in the template, one having a completely extended primer and one having an incompletely extended primer, and these two reaction products are separated. The products may be separated using any convenient separation method, such as mass spectrometry and in one embodiment, capillary electrophoresis.
In an embodiment, a primer oligonucleotide covalently linked to a fluorescent label is contacted with template DNA. The resulting complex is contacted with a test molecule and then contacted with a polymerase capable of extending the primer. The reaction products then are separated and detected by capillary electrophoresis. A longer primer sequence was used for practicing this embodiment as compared to embodiments where the primer includes no covalently-linked fluorophore or where capillary electrophoresis is not utilized for separation. Deoxynucleotides are added at any stage of the assay before the separation, often when the primer is contacted with the template DNA. The template DNA/primer complex often is denatured (e.g., by increasing the temperature of the system) and then renatured (e.g., by cooling the system) before a test compound is added).
The mixture was denatured at 95° C. for 5 minutes and, after cooling down to room temperature, was incubated at 37° C. for 15 minutes.
After cooling down to room temperature, 1 mM KCl and the test compound (various concentrations) were added and the mixture incubated for 15 minutes at room temperature. The primer extension was performed by adding 10 mM KCl and Taq DNA Polymerase (2.5 U/reaction, Promega) and incubating at 70° C. for 30 minutes. The reaction was stopped by adding 1 μl of the reaction mixture to 10 μl Hi-Di Formamide mixed and 0.25 μl LIZ120 size standard. Hi-Di Formamide and LIZ120 size standard were purchased from Applied Biosystems.
The partially extended quadruplex arrest product was between 61 or 62 bases long and the full-length extended product was 99 bases long. The products were separated and analyzed using capillary electrophoresis. Capillary electrophoresis was performed using an ABI PRISM 3100-Avant Genetic Analyzer.
Stop Assays. […] A fluorescently labeled primer DNA is then annealed to the 3′ end of the template DNA. A DNA polymerase such as Taq polymerase is then introduced to synthesize a complementary strand of DNA by extending from the fluorescently labeled primer. When the progress of the Taq polymerase is unhindered, it synthesizes a full-length copy of the template.
These products are visualized by capillary electrophoresis.
[3] abbreviates: Homo sapiens, HeLa, 72 h, concentration at which 50% of antiproliferative cell response is seen, 3 days incubation, read-out: MTS Data Hella.
Setting [4] is: read-out: Stop Data c-Myc μM, concentration at which 50% of the DNA was arrested (arrested:full-length 1:1).
Setting [5] is: Homo sapiens, HeLa, HeLa cells, MTS, read-out: Hela MTS.
Setting [6] is: read-out: S DATA, Table 1D, stop assay data.

Where two headings read alike, the source gives them in different places.

In the case of `O=C(NCCCn1ccnc1)c1cn2c3c(c(NCCN4CCCC4)c(F)cc3c1=O)Oc1cc3c(cc1-2)oc1ccccc13` [compound 368], the IC50 was 3600 nM in assay [1] (setting [3]) and 0.75 µM in assay [2] (setting [4]).

With `CN1CCCC1CCNC(=O)c1cn2c3c(c(NCCCN(CCO)CCO)c(F)cc3c1=O)Oc1cc3ccccc3cc1-2` (stereo not shown) [compound 534], the IC50 in assay [1] (setting [3]) is 400 nM; in assay [2] (setting [4]) it was 0.375 µM.

As to `CN(C)CCCCNC(=O)c1cn2c3cc4c(cc3oc3c(NCCCN5CCOCC5)c(F)cc(c1=O)c32)c(=O)c1ccccc14` [compound 519], the IC50 in assay [1] (setting [3]) was determined as 2100 nM; in assay [2] (setting [4]) it was 0.375 µM.

Turning to `N[C@@H]1CCN(c2c(F)cc3c(=O)c(C(=O)NCCN4CCOCC4)cn4c3c2Oc2cc3ccccc3cc2-4)C1` [compound 390], the IC50 in assay [1] (setting [3]) came to 240 nM; in assay [2] (setting [4]) it was 0.75 µM.

On to `CN1CCCC1CCNC(=O)c1cn2c3c(c(N4CCC(N)C4)c(F)cc3c1=O)Nc1cc3ccccc3cc1-2` (stereo not shown) [compound 1645], for which the IC50 in assay [1] (setting [5]) amounted to 3300 nM; in assay [2] (setting [6]), 0.62 µM.

With `C[C@@H](O)CNc1c(F)cc2c(=O)c(C(=O)NCCC3CCCN3C)cn3c2c1Oc1cc2ccccc2cc1-3` (stereo partly shown) [compound 382], the figures for the IC50 in assay [1] (setting [3]) and in assay [2] (setting [4]) were 1800 nM and 0.75 µM, respectively.

With `CN1CCN(CCCNC(=O)c2cn3c4c(c(N5CCC(N)C5)c(F)cc4c2=O)Oc2cc4c(cc2-3)oc2ccccc24)CC1` (stereo not shown) [compound 1467], the IC50 stood at 350 nM in assay [1] (setting [3]) and 0.25 µM in assay [2] (setting [4]).

Regarding `N[C@H]1CCN(c2c(F)cc3c(=O)c(C(=O)NCCN4CCCC4)cn4c3c2Oc2ccccc2-4)C1` [compound 109], the IC50 was 310 nM in assay [1] (setting [3]) and 1.75 µM in assay [2] (setting [4]).

On to `CN1CCCC1CCNC(=O)c1cn2c3c(c(NCCCN(CCO)CCO)c(F)cc3c1=O)Oc1cc3ccccc3cc1-2` (stereo not shown) [compound 1686], for which the IC50 in assay [1] (setting [5]) was found to be 400 nM; in assay [2] (setting [6]), 0.375 µM.

With `CN(C)CCCCNC(=O)c1cn2c3c(c(N4CCC(N)C4)c(F)cc3c1=O)Oc1cc3c(cc1-2)Cc1ccccc1-3` (stereo not shown) [compound 532], the IC50 turned out to be 440 nM in assay [1] (setting [3]) and 0.375 µM in assay [2] (setting [4]).

`O=C(NCCN1CCCC1)c1cn2c3cc4oc5cc([N+](=O)[O-])ccc5[nH]c4cc3oc3c(NCCN4CCCC4)c(F)cc(c1=O)c32` [compound 479]: the IC50 in assay [1] (setting [3]) turned out to be 7400 nM; in assay [2] (setting [4]) it was 0.5 µM.

As for `O=C(NCCN1CCCC1)c1cn2c3cc4c(cc3oc3c(N5CC6CCCNC6C5)c(F)cc(c1=O)c32)c(=O)c1ccccc14` (stereo not shown) [compound 1726], the IC50 amounted to 2600 nM in assay [1] (setting [5]) and 0.125 µM in assay [2] (setting [6]).

Take `O=C(NCCN1CCCC1)c1cn2c3c(c(N4CCC(c5cnccn5)C4)ccc3c1=O)Oc1cc3ccccc3cc1-2` (stereo not shown) [compound 303]: the IC50 in assay [1] (setting [3]) was determined as 2100 nM; in assay [2] (setting [4]), 1.5 µM.

Turning to `O=C(NCCN1CCOCC1)c1cn2c3c(c(N4CC5CCCNC5C4)c(F)cc3c1=O)Oc1cc3ccccc3cc1-2` (stereo not shown) [compound 1640], the IC50 in assay [1] (setting [5]) came out at 30 nM; in assay [2] (setting [6]) it was 0.25 µM.

On to `CN1CCCC1CCNC(=O)c1cn2c3c(c(N)c(F)cc3c1=O)Oc1c-2ccc2ccccc12` (stereo not shown) [compound 1763], for which the IC50 came out at 3800 nM in assay [1] (setting [5]) and 1.5 µM in assay [2] (setting [6]).

Turning to `CN1CCN(CCCNC(=O)c2cn3c4c(c(N5CCC(NC(=O)OC(C)(C)C)C5)c(F)cc4c2=O)Oc2cc4c(cc2-3)oc2ccccc24)CC1` (stereo not shown) [compound 383], the IC50 in assay [1] (setting [3]) came to 370 nM; in assay [2] (setting [4]), 0.75 µM.

Turning to `CC1(C)CC(NC(=O)c2cn3c4c(c(N5CC6CCCNC6C5)c(F)cc4c2=O)Oc2cc4ccccc4cc2-3)CC(C)(C)N1` (stereo not shown) [compound 487], the IC50 is 180 nM in assay [1] (setting [3]) and 0.5 µM in assay [2] (setting [4]).

Regarding `CN1CCCC1CCNC(=O)c1cn2c3c(c(NCCCN4CCOCC4)c(F)c(N)c3c1=O)Oc1cc3ccccc3cc1-2` (stereo not shown) [compound 380], the results for the IC50 in assay [1] (setting [3]) and in assay [2] (setting [4]) were 1800 nM and 0.75 µM, respectively.

Consider `O=C(NCCN1CCCC1)c1cn2c3c(c(N4CC5CCCNC5C4)c(F)cc3c1=O)Oc1cc3ccccc3cc1-2` (stereo not shown) [compound 545], for which the IC50 in assay [1] (setting [3]) came out at 150 nM; in assay [2] (setting [4]), 0.375 µM.

`CC(C)(C)OC(=O)N[C@H]1CCN(c2c(F)cc3c(=O)c(C(=O)O)cn4c5cc6oc7cc([N+](=O)[O-])ccc7[nH]c6cc5oc2c34)C1` [compound 24]: the IC50 in assay [1] (setting [3]) came out at 7000 nM; in assay [2] (setting [4]), 0.5 µM.

Take `CN(C)CCCCNC(=O)c1cn2c3c(c(N4CC[C@@H](NC(=O)CCN5CCCC5)C4)c(F)cc3c1=O)Oc1cc3c(cc1-2)oc1ccccc13` [compound 510]: the IC50 in assay [1] (setting [3]) stood at 3100 nM; in assay [2] (setting [4]), 0.375 µM.

`O=C(NCCN1CCCC1)c1cn2c3c(c(N4CCC(c5cnccn5)C4)ccc3c1=O)Oc1ccccc1-2` (stereo not shown) [compound 30]: the figures for the IC50 in assay [1] (setting [3]) and in assay [2] (setting [4]) were 1800 nM and 3 µM, respectively.

For the compound `N=C(N)NCC1CCCC(CNC(=O)c2cn3c4c(c(N5CCC(N)C5)c(F)cc4c2=O)Oc2cc4ccccc4cc2-3)C1` (stereo not shown) [compound 1649], the IC50 in assay [1] (setting [5]) stood at 2200 nM; in assay [2] (setting [6]), 0.37 µM.

In the case of `CN(C)C1CCN(c2c(F)cc3c(=O)c(C(=O)NCCC4CCCN4C)cn4c3c2Oc2cc3ccccc3cc2-4)C1` (stereo not shown) [compound 104], the IC50 in assay [1] (setting [3]) was found to be 2800 nM; in assay [2] (setting [4]), 1.75 µM.

As for `CN1CCCC1CCNC(=O)c1cn2c3c(c(NCC4(O)CCCCC4)c(F)cc3c1=O)Oc1cc3ccccc3cc1-2` (stereo not shown) [compound 391], the IC50 in assay [1] (setting [3]) is 240 nM; in assay [2] (setting [4]) it was 0.75 µM.

Take `CN1CCCC1CCNC(=O)c1cn2c3c(c(N4CCC(N)C4)c(F)cc3c1=O)Oc1cc3ccccc3cc1-2` (stereo not shown) [compound 472]: the IC50 in assay [1] (concentration at which 50% of antiproliferative cell response is seen, 3 days incubation, read-out: MTS Data Hella) was determined as 3300 nM; in assay [2] (setting [4]), 0.62 µM.

Turning to `O=C(NCCN1CCCC1)c1cn2c3c(c(N4CCC(c5cnccn5)C4)c(F)cc3c1=O)Oc1ccc(Cl)cc1-2` (stereo not shown) [compound 1795], the IC50 in assay [1] (setting [5]) came out at 500 nM; in assay [2] (setting [6]), 2.9 µM.

As for `CN(C)CCCCNc1c(F)cc2c(=O)c(C(=O)NCCC3CCCN3C)cn3c4cc5oc6cc([N+](=O)[O-])ccc6[nH]c5cc4oc1c23` (stereo not shown) [compound 569], the IC50 in assay [1] (setting [3]) came out at 7800 nM; in assay [2] (setting [4]), 0.18 µM.

For the compound `CN1CCCC1CCNC(=O)c1cn2c3cc4c(=O)c5ccccc5c(=O)c4cc3oc3c(NCCN4CCCC4)c(F)cc(c1=O)c32` (stereo not shown) [compound 592], the IC50 in assay [1] (setting [3]) is 3800 nM; in assay [2] (setting [4]) it was 0.1 µM.

Regarding `CC1CCCCN1CCCNC(=O)c1cn2c3c(c(N4CCC(N)C4)c(F)cc3c1=O)Oc1cc3ccccc3cc1-2` (stereo not shown) [compound 387], the IC50 came out at 330 nM in assay [1] (setting [3]) and 0.75 µM in assay [2] (setting [4]).

In the case of `CN1CCCC1CCNC(=O)c1cn2c3cc4c(cc3oc3c(NCCC5CCCN5C)c(F)cc(c1=O)c32)c(=O)c1ccccc14` (stereo not shown) [compound 514], the IC50 in assay [1] (setting [3]) was 2900 nM; in assay [2] (setting [4]), 0.375 µM.

As to `N[C@H]1CCN(c2c(F)cc3c(=O)c(C(=O)NCCN4CCCC4)cn4c5cc6c(cc5oc2c34)c(=O)c2ccccc26)C1` [compound 583], the IC50 in assay [1] (setting [3]) was found to be 250 nM; in assay [2] (setting [4]), 0.18 µM.

As for `CN1CCCC1CCNc1c(F)cc2c(=O)c(C(=O)NCCN3CCCC3)cn3c4cc5oc6cc([N+](=O)[O-])ccc6[nH]c5cc4oc1c23` (stereo not shown) [compound 571], the IC50 amounted to 4800 nM in assay [1] (setting [3]) and 0.18 µM in assay [2] (setting [4]).

Regarding `CN1CCCC1CCNC(=O)c1cn2c3c(c(NCCN4CCCC4)c(F)cc3c1=O)Oc1cc3c(cc1-2)oc1ccccc13` (stereo not shown) [compound 306], the IC50 in assay [1] (setting [3]) amounted to 3200 nM; in assay [2] (setting [4]) it was 1 µM.

`CN1CCCC1CCNC(=O)c1cn2c3c(c(NCCc4ccc(O)cc4)c(F)cc3c1=O)Oc1cc3ccccc3cc1-2` (stereo not shown) [compound 378]: the IC50 was found to be 2100 nM in assay [1] (setting [3]) and 0.75 µM in assay [2] (setting [4]).
